Data from patent US6888015B2, “Sphingolipid synthesis inhibitor” (Japan Science and Technology Agency, priority 2001, dated 2005).

How the values were obtained:
[1] = test system: de novo synthesis of SM in CHO cells; assay: Metabolic labeling of lipids with [14C]serine in CHO cells; assay type: cell-based, Chinese hamster; conditions: for inhibition of de novo SM synthesis (stereoisomers): [14C]serine labeling (FIG. 6B)
Method: (§1) CHO cells are cultured in Ham's F12 medium supplemented with 10% newborn bovine serum (NBS), penicillin G (100 unit/mL) and streptomycin sulfate (100 μg/mL) at the temperature of 33° C. and 5% CO2 atmosphere. In the case of HeLa cells, Dulbecco's minimum essential medium is used as a base medium instead of Ham's F12 medium.
Further, Nutridoma medium (Ham's F12 medium containing 1% Nutridoma-SP, product of Roche Molecular Biochemicals, and 25 μg/mL of gentamicin) is used as a serum-free medium. In the case when the medium is supplemented by DMSO or drugs dissolved in DMSO, the concentration of DMSO in culture medium is adjusted to be 0.01%.
CHO cells are seeded at the density of 1.0×10^6 cell in 5 mL of F12 medium containing 10% NBS, by per 60-mm dish, and cultured at 33° C. overnight. Then, the medium is changed to 1.5 mL of Nutridoma medium if necessary, various drugs are added and incubated at 4° C. for 15 minutes. Then, after addition of [^14C] serine (0.75 μCi) or [^14 C] choline (1.0 μCi) to the medium, cells were incubated at 33° C. for various periods of time.
Cells are washed twice with 2 mL of cold phosphate-buffered saline (PBS), and lysed with 900 μL of 0.1% sodium dodecyl sulfate (SDS). Then, 800 μL and 20 μL of lysate are used for lipid extraction and determination of protein concentration, respectively.
For the analysis of lipids labeled with [C^14C] serine, lipids were separated by TLC with a solvent consisting of methylacetate/n-propanol/chloroform/methanol/0.25%KCl (25:25:25:10:9, volume ratio) as a developing solvent.
Radioactive lipid separated on the TLC plates are detected with image analyzer depicted above. After the collection of gels from TLC plates by scraping, the radioactivity of each lipid is determined by liquid scintillation counting and normalized to the protein concentration of cells.

[2] = test system: synthesis of SM in HeLa cells; assay: De novo synthesis of SM in HeLa cells; assay type: cell-based; conditions: FIG. 6D
Method: as §1

[3] = test system: protein trafficking from the ER to the Golgi apparatus; assay: Glycoprotein (PLAP-HA) transport from the ER to the Golgi apparatus; assay type: cell-based, Chinese hamster; conditions: 2.5 μM; CHO-K1 transformant expressing PLAP-HA (FIG. 7)

CCCCCCCCCCCC(=O)N[C@@H](CO)C[C@@H](O)c1ccccc1 [(1R, 3R)-HPA-12]
inhibitory activity on the Cer-to-SM conversion among four stereoisomers ([1]; FIG. 6B, 6C): strongest inhibitory activity | inhibition of de novo SM synthesis (stereoisomers) [1]: strongly | synthesis of SM in HeLa cells [2]: inhibits | maturation rate of newly synthesized PLAP-HA to an EndoH-resistant form [3]: not affected

CCCCCCCCCCCC(=O)N[C@H](CO)C[C@H](O)c1ccccc1 [(1S, 3S)-HPA-12]
inhibition of de novo SM synthesis (stereoisomers) [1]: moderately

CCCCCCCCCCCCCCCC(=O)NC(CO)CC(O)c1ccccc1 (stereo not drawn) [HPA-16]
formation of [14C]SM ([1]; 2.5 μM drug, [14C]serine labeling, CHO cells (FIG. 1B)): less than that of HPA-12
